For this experiment, the system named is pancreatic endocrine progenitors. Description: Addition of small molecules ISX9 and Wnt-C59 at Stage 5, flow cytometry of β cell marker expression in Stage 6 aggregates. The format is cell-based, human. The note with it: added at Stage 5 of the hPSC differentiation protocol (10 μM ISX9, 100 nM Wnt-C59). An excerpt:
FIG. 5 illustrates establishment of efficient hPSC-islet generation protocol and characterization of hPSC-islets. a, Flow cytometry analysis comparing differentiation efficiencies between planar culture and suspension culture at various stages of the protocol in terms of pancreatic progenitor markers at the end of Stage 4 and β cell markers at the end of Stage 6 (n=5). b, Flow cytometry of β cell marker expression in Stage 6 aggregates without and with addition of small molecules ISX9 and Wnt-C59, individually or in combination at Stage 5, detected at S6D2 (n=4). c, Continuous stage-wise tracking of pancreatic progenitor, endocrine progenitor, and β cell markers by flow cytometry throughout the differentiation protocol (n=3). (d-h) In vitro characterization of stage 6 islet-like aggregates. d, Representative immunostaining of key β cell transcription factors in sectioned Stage 6 aggregates. Scale bar, 50 μm. e, C-peptide secretion of Stage 6 aggregates (n=3) and primary human islets in static glucose stimulation assay (n=2). Glucose stimulation index as indicated above bars. f, Insulin secretion of hPSC-islets in dynamic perifusion assay. g, Electron microscopy depicting ultrastructure of Stage 6 β cell and insulin granules. Scale bar, 2.5 μm. h, Glucagon secretion by hPSC-islets in static glucose stimulation assay. […]
In general terms: A flow cytometer gives signals particle by particle.

The structures appear in SMILES notation.

Take `O=C(NC1CC1)c1cc(-c2cccs2)on1` [ISX9, Isoxazole 9]: the “differentiation of pancreatic progenitors / terminal differentiation of pancreatic endocrine progenitors” value is “promoted the terminal differentiation of pancreatic endocrine progenitors”.

Source of the values: patent US20250002863A1, “METHOD OF GENERATING FUNCTIONAL ISLETS FROM PLURIPOTENT STEM CELLS” (HANGZHOU REPROGENIX BIOSCIENCE, INC., priority 2021, published 2025).
